# In patent US12129237B2, “Substituted diaminocarboxamide and diaminocarbonitrile pyrimidines, compositions thereof, and methods of treatment therewith” (SIGNAL PHARMACEUTICALS, LLC, priority 2011, dated 2024):
# Target: T1, JNK1 (Homo sapiens, UniProt P45983)
# T1 construct: purchased Carna Biosciences
# Assay: JNK1 biochemical assays (one or more of: time resolved fluorescence, Z'-LYTE Cascade, radioactive)
# Conditions: Table 2; JNK1 IC50 activity level; read-out: Act. Level
# T1 sequence (P45983 whole entry): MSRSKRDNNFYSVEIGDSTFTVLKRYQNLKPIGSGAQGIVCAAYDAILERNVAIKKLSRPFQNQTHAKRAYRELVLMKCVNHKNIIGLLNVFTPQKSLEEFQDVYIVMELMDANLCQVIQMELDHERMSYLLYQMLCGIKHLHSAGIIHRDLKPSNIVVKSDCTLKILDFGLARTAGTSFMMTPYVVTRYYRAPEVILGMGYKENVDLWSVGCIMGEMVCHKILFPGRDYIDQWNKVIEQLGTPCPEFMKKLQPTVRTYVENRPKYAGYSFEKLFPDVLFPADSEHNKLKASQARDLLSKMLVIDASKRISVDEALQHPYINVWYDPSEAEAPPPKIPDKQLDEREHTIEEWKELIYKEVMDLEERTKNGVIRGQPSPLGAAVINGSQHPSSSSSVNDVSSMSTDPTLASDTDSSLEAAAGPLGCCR
row,IC50,Compound
1,< 200 nM,"CCOC(=O)N1CCC(Nc2ncc(C(N)=O)c(Nc3ccccc3)n2)CC1 [Example B-48, ethyl 4-(5-carbamoyl-4-(phenylamino)pyrimidin-2-ylamino)piperidine-1-carboxylate]"
2,< 200 nM,"CCOc1cccc(Nc2ncc(C(N)=O)c(Nc3ccccc3)n2)c1 [Example B-26, 2-(3-ethoxyphenylamino)-4-(phenylamino)pyrimidine-5-carboxamide]"
3,< 200 nM,"NC(=O)c1cnc(N[C@@H]2CCOc3ccccc32)nc1N[C@@H]1CCC[C@H](O)C1 [Example B-79, 2-((R)-chroman-4-ylamino)-4-((1R,3S)-3-hydroxycyclohexylamino)pyrimidine-5-carboxamide]"
4,200 to 800 nM,"CC(C)Nc1nc(N[C@H]2CCc3cnccc3C2)ncc1C(N)=O [Example B-91, (S)-4-(isopropylamino)-2-(5,6,7,8-tetrahydroisoquinolin-6-ylamino)pyrimidine-5-carboxamide]"

# Same assay, conditions: Table 3; JNK1 IC50 activity level; read-out: Act. Level
row,IC50,Compound
1,< 200 nM,"CCO[C@H]1CC[C@H](Nc2ncc(C#N)c(N[C@@H]3CC[C@@H](C)[C@H](O)C3)n2)CC1 [Example C-41, 2-((1r,4R)-4-ethoxycyclohexylamino)-4-((1R,3R,4R)-3-hydroxy-4-methylcyclohexylamino) pyrimidine-5-carbonitrile]"
2,1000 to 10000 nM,"CCO[C@H]1CC[C@H](Nc2ncc(C#N)c(N[C@H]3CCCOC3)n2)CC1 [Example C-24, 2-((1r,4S)-4-ethoxycyclohexylamino)-4-((S)-tetrahydro-2H-pyran-3-ylamino)pyrimidine-5-carbonitrile]"

# Same assay, conditions: one or more of the JNK1 biochemical assays; read-out: Act. Level (JNK1 IC50 activity level)
row,IC50,Compound
1,< 200 nM,"CCC1(Nc2nc(N[C@H]3CC[C@H](O)CC3)ncc2C(N)=O)CCCC1 [Example 455, 4-(1-ethylcyclopentylamino)-2-((1r,4r)-4-hydroxycyclohexylamino)pyrimidine-5-carboxamide]"
2,< 200 nM,"CCO[C@H]1CC[C@H](Nc2ncc(C(N)=O)c(N[C@@H](C)C3CCC3)n2)CC1 [Example 293, 4-((S)-1-cyclobutylethylamino)-2-((1r,4S)-4-ethoxycyclohexylamino)pyrimidine-5-carboxamide]"
3,< 200 nM,"CO[C@H]1CC[C@H](Nc2ncc(C(N)=O)c(N[C@H](C)C3CC3)n2)CC1 [Example 421, 4-((R)-1-cyclopropylethylamino)-2-((1r,4R)-4-methoxycyclohexylamino)pyrimidine-5-carboxamide]"
4,< 200 nM,"CO[C@H]1CC[C@H](Nc2ncc(C(N)=O)c(N[C@H]3C[C@@H](C)C3)n2)CC1 [Example 337, 2-((1r,4r)-4-methoxycyclohexylamino)-4-((1s,3s)-3-methycyclobutylamino)pyrimidine-5-carboxamide]"
5,< 200 nM,"C[C@@H](Nc1nc(N[C@H]2CC[C@H](OC(F)F)CC2)ncc1C(N)=O)C1CC1 [Example 426, 4-((R)-1-cyclopropylethylamino)-2-((1r,4R)-4-(difluoromethoxy)cyclohexylamino)pyrimidine-5-carboxamide]"
6,200 to 800 nM,"CC(C)(C)Nc1ncc(C(N)=O)c(NC(C)(C)C)n1 [Example 238, 2,4-bis(tert-butylamino)pyrimidine-5-carboxamide]"
7,< 200 nM,"CC(C)(C)Nc1ncc(C(N)=O)c(N[C@@H]2CCC[C@H]2CO)n1 [Example 330, 2-(tert-butylamino)-4-((1R,2R)-2-(hydroxymethyl)cyclopentylamino)pyrimidine-5-carboxamide]"
8,< 200 nM,"CC1CCC1Nc1nc(N[C@H]2CC[C@H](O)CC2)ncc1C(N)=O (some centres unmarked) [Example 245, 2-((1r,4r)-4-hydroxycyclohexylamino)-4-(2-methylcyclobutylamino)pyrimidine-5-carboxamide]"
9,< 200 nM,"CC1(Nc2nc(N[C@H]3CC[C@H](O)CC3)ncc2C(N)=O)CCC1 [Example 239, 2-((1r,4r)-4-hydroxycyclohexylamino)-4-(1-methylcyclobutylamino)pyrimidine-5-carboxamide]"
10,< 200 nM,"CC[C@@H](Nc1nc(N[C@H]2CC[C@H](OC)CC2)ncc1C(N)=O)C1CC1 [Example 374, 4-((R)-1-cyclopropylpropylamino)-2-((1r,4R)-4-methoxycyclohexylamino)pyrimidine-5-carboxamide]"
11,< 200 nM,"CCC(C)(C)Nc1nc(N[C@H]2CC[C@H](OC)CC2)ncc1C(N)=O [Example 381, 2-((1r,4r)-4-methoxycyclohexylamino)-4-(tert-pentylamino)pyrimidine-5-carboxamide]"
12,< 200 nM,"CC1(Nc2ncc(C(N)=O)c(N[C@@H]3CCC[C@](C)(O)C3)n2)CCC1 [Example 353, 4-((1R,3S)-3-hydroxy-3-methylcyclohexylamino)-2-(1-methylcyclobutylamino)pyrimidine-5-carboxamide]"
13,< 200 nM,"CC(C)(C)Nc1nc(N[C@@H]2CCCC[C@H](O)C2)ncc1C(N)=O [Example 376, 4-(tert-butylamino)-2-((1R,3S)-3-hydroxycycloheptylamino)pyrimidine-5-carboxamide]"
14,< 200 nM,"CC(C)(Nc1nc(N[C@H]2CCC[C@H](O)C2)ncc1C(N)=O)C1CC1 [Example 456, 4-(2-cyclopropylpropan-2-ylamino)-2-((1S,3S)-3-hydroxycyclohexylamino)pyrimidine-5-carboxamide]"
15,< 200 nM,"C[C@@H](Nc1nc(N[C@@H]2CCC[C@H](O)C2)ncc1C(N)=O)C1CC1 [Example 423, 4-((R)-1-cyclopropylethylamino)-2-((1R,3S)-3-hydroxycyclohexylamino)pyrimidine-5-carboxamide]"
16,< 200 nM,"CN(C)C(=O)[C@H]1CC[C@H](Nc2ncc(C(N)=O)c(NC(C)(C)C3CC3)n2)CC1 [Example 480, 4-(2-cyclopropylpropan-2-ylamino)-2-((1r,4r)-4-(dimethylcarbamoyl)cyclohexylamino)pyrimidine-5-carboxamide]"
17,200 to 800 nM,"CC1(C)CCC(Nc2nc(NC34CC(C3)C4)ncc2C(N)=O)CC1O (centres unmarked) [Example 427, 2-(bicyclo[1.1.1]pentan-1-ylamino)-4-(3-hydroxy-4,4-dimethylcyclohexylamino)pyrimidine-5-carboxamide]"
18,< 200 nM,"C[C@H]1C[C@@H](Nc2nc(N[C@H]3CC[C@H](O)CC3)ncc2C(N)=O)C1 [Example 327, 2-((1r,4r)-4-hydroxycyclohexylamino)-4-((1s,3s)-3-methylcyclobutylamino)pyrimidine-5-carboxamide]"
19,< 200 nM,"CC[C@@H](C)Nc1ncc(C(N)=O)c(N[C@@H]2CCC[C@H](O)C2)n1 [Example 497, 2-(sec-butylamino)-4-((1R,3S)-3-hydroxycyclohexylamino)pyrimidine-5-carboxamide]"

# Same assay, conditions: tested in one or more of the JNK1 biochemical assays; read-out: Act. Level (JNK1 biochemical assay IC50 activity level)
row,IC50,Compound
1,< 200 nM,"CCO[C@H]1CC[C@@H](Nc2nc(NC3CCOCC3)ncc2C(N)=O)CC1 [Example A-115, 4-((1s,4s)-4-ethoxycyclohexylamino)-2-(tetrahydro-2H-pyran-4-ylamino)pyrimidine-5-carboxamide]"
2,< 200 nM,"CC[C@]1(O)CCC[C@@H](Nc2nc(N[C@H]3CC[C@H](OC)CC3)ncc2C(N)=O)C1 [Example A-161, 4-((1R,3S)-3-ethyl-3-hydroxycyclohexylamino)-2-((1r,4R)-4-methoxycyclohexylamino)pyrimidine-5-carboxamide]"
3,< 200 nM,"CCO[C@H]1CC[C@@H](Nc2nc(NC3CCN(C(=O)CC)CC3)ncc2C(N)=O)CC1 [Example A-113, 4-((1s,4s)-4-ethoxycyclohexylamino)-2-(1-propionylpiperidin-4-ylamino)pyrimidine-5-carboxamide]"
4,< 200 nM,"CC[C@H](C)Nc1nc(N[C@H]2CC[C@H](O)CC2)ncc1C(N)=O [Example A-195, 4-(sec-butylamino)-2-((1r,4S)-4-hydroxycyclohexylamino)pyrimidine-5-carboxamide]"
5,< 200 nM,"CCO[C@H]1CC[C@H](Nc2ncc(C(N)=O)c(NC[C@H](C)O)n2)CC1 [Example A-102, 2-((1r,4S)-4-ethoxycyclohexylamino)-4-((S)-2-hydroxypropylamino)pyrimidine-5-carboxamide]"
6,< 200 nM,"CNC(=O)[C@H]1CC[C@H](Nc2ncc(C(N)=O)c(N[C@@H]3CCC[C@H](O)C3)n2)CC1 [Example A-56, 4-((1R,3S)-3-hydroxycyclohexylamino)-2-((1r,4R)-4-(methylcarbamoyl)cyclohexylamino)pyrimidine-5-carboxamide]"
7,1000 to 10000 nM,"CCNC(=O)[C@H]1CC[C@@H](Nc2nc(NC(C)C)ncc2C(N)=O)CC1 [Example A-141, 4-((1s,4s)-4-(ethylcarbamoyl)cyclohexylamino)-2-(isopropylamino)pyrimidine-5-carboxamide]"
8,< 200 nM,"CO[C@H]1CC[C@H](Nc2ncc(C(N)=O)c(N[C@H]3CC[C@H](O)CC3)n2)CC1 [Example A-34, 4-((1r,4r)-4-hydroxycyclohexylamino)-2-((1r,4r)-4-methoxycyclohexylamino)pyrimidine-5-carboxamide]"
9,200 to 800 nM,"COC[C@H]1CC[C@@H](Nc2nc(NC3CCN(C(C)=O)CC3)ncc2C(N)=O)CC1 [Example A-83, 2-(1-acetylpiperidin-4-ylamino)-4-((1s,4s)-4-(methoxymethyl)cyclohexylamino)pyrimidine-5-carboxamide]"
10,< 200 nM,"NC(=O)c1cnc(NC2CCCC2)nc1N[C@H]1CC[C@@H](O)CC1 [Example A-128, 2-(cyclopentylamino)-4-((1s,4s)-4-hydroxycyclohexylamino)pyrimidine-5-carboxamide]"
11,< 200 nM,"NC(=O)c1cnc(N[C@H]2CCCOC2)nc1N[C@@H]1CCC[C@H](O)C1 [Example A-52, 4-((1R,3S)-3-hydroxycyclohexylamino)-2-((S)-tetrahydro-2H-pyran-3-ylamino)pyrimidine-5-carboxamide]"
12,< 200 nM,"C[C@]1(O)CCC[C@@H](Nc2nc(N[C@H]3CC[C@H](O)CC3)ncc2C(N)=O)C1 [Example A-177, 4-((1R,3S)-3-hydroxy-3-methylcyclohexylamino)-2-((1r,4R)-4-hydroxycyclohexylamino)pyrimidine-5-carboxamide]"
13,< 200 nM,"CO[C@H]1CC[C@H](Nc2ncc(C(N)=O)c(NC3CCC4(CC3)OCCO4)n2)CC1 [Example A-121, 4-(1,4-dioxaspiro[4.5]decan-8-ylamino)-2-((1r,4r)-4-methoxycyclohexylamino)pyrimidine-5-carboxamide]"
